One data set has as its system recurrent glioblastoma. Briefly: Phase II trial NABTC 03-02, progression free survival. The format is in vivo, patients. As to conditions: 2000 mg i.v. twice weekly after resection.
Another data set can be described thus: clinical. As to conditions: human, in vivo, iv.
The nature of data set [1]: Treatment-related toxicity in the phase II trial. Type of data set: in vivo, patients.
Data set [2] is described as follows: Tumor tissue concentrations of cilengitide at resection, HPLC-MS/MS. The conditions noted are these: human, iv. Type of data set: in vivo, patients.

Each structure is given as a SMILES string.

For the compound `CC(C)[C@H]1C(=O)N[C@@H](CCCNC(=N)N)C(=O)NCC(=O)N[C@@H](CC(=O)O)C(=O)N[C@H](Cc2ccccc2)C(=O)N1C` [Cilengitide], the “6-month PFS rate” value with recurrent glioblastoma (26 patients evaluable for efficacy) is given as 12%. The “median PFS” value with recurrent glioblastoma (Kaplan-Meier, 95% confidence interval 4–16 weeks) is 8 weeks. For the same compound, the level at 24 h in the data set “clinical” (500 mg) came to 333 ng/mL; in “clinical” (2000 mg), 386 ng/mL. Further, in data set [1] (30 patients, 500 or 2000 mg before surgery, 2000 mg i.v. twice weekly after), the tolerability entry is listed as “very well tolerated”. The “dose reductions for toxicity” value in data set [1] (in vivo) is “no dose reductions for toxicity”. Also, the treatment related deaths result in data set [1] (in vivo) is given as “no treatment related deaths”. Further, the “number of grade 3–4 toxicities” value in data set [1] (mainly lymphopenia, likely related to prior cytotoxic chemotherapy) is listed as 9. Besides, the figures for the tissue level at time at 24 h in data set [2] (500 mg) and in data set [2] (2000 mg) were 919 ng/g and 1410 ng/g, respectively.
